Among the data in ChEMBL document CHEMBL5608163, “Structure modification of anoplin for fighting resistant bacteria” (Eur J Med Chem, 2024) are MIC, HC10 and HC50 values, retold here.

The subject of one series is Pseudomonas aeruginosa. As to the kind of experiment: Antibacterial activity against Pseudomonas aeruginosa ATCC 27853 assessed as reduction in bacterial growth incubated for 18 to 20 hrs by Mueller Hinton broth dilution method. The settings on record: time 18-20 hrs. It is filed as functional. On the technique in general: Broth dilution looks for growth in wells or tubes with falling amounts of substance.

A further series concerns Klebsiella pneumoniae. As to the kind of experiment: Antimicrobial activity against Klebsiella pneumoniae assessed as reduction in bacterial growth incubated for 18 to 20 hrs by Mueller-Hinton broth based microdilution method. In kind it is functional. The settings on record: time 18-20 hrs.
A further series has as its system Bacillus subtilis. As to the kind of experiment: Antibacterial activity against Bacillus subtilis ATCC 23857 assessed as reduction in bacterial growth incubated for 18 to 20 hrs by Mueller Hinton broth dilution method. It is filed as functional. The settings on record: time 18-20 hrs.
For series [1], the system named is Escherichia coli. As to the kind of experiment: Antibacterial activity against Escherichia coli ATCC 25922 assessed as reduction in bacterial growth incubated for 18 to 20 hrs by Mueller Hinton broth dilution method. In kind it is functional. The note with it: time 18-20 hrs.
For series [2], the system named is Staphylococcus aureus. As to the kind of experiment: Antibacterial activity against Staphylococcus aureus ATCC 25923 assessed as reduction in bacterial growth incubated for 18 to 20 hrs by Mueller Hinton broth dilution method. In kind it is functional. The settings on record: time 18-20 hrs.
Another series relates to Erythrocyte. Briefly: Hemolytic activity in mouse Red blood cells incubated for 1 hr by microplate reader assay. It is filed as toxicity, cell-based. The note with it: erythrocyte, 1 h.
The test system of series [3] is Staphylococcus aureus. As to the kind of experiment: Antibacterial activity against Staphylococcus aureus ATCC 25923 assessed as reduction in bacterial growth incubated for 18 to 24 hrs by broth microdilution method. It is filed as functional. The settings on record: time 18-24 hrs.
The subject of series [4] is Escherichia coli. As to the kind of experiment: Antibacterial activity against Escherichia coli ATCC 25922 assessed as reduction in bacterial growth by broth microdilution method. In kind it is functional.
Series [5] in a line: Hemolytic activity in human RBC. It is filed as toxicity, cell-based, Erythrocyte. The settings on record: red blood cells.

Converted amounts (≈) assume the structure as drawn. Peptide text beside a SMILES is read from it. Where only a bound is given, the exact number is not on record here.

By MIC is commonly meant the least concentration at which growth counts as inhibited. For `CC[C@H](C)[C@H](NC(=O)[C@H](CCCNC(=N)N)NC(=O)[C@@H](CCCCN)NC(=O)[C@H](CC(C)C)NC(=O)[C@H](CC(C)C)NC(=O)CN)C(=O)N[C@H](CCCCN)C(=O)N[C@H](C(=O)N[C@@H](CC(C)C)C(=O)N[C@@H](CC(C)C)C(N)=O)[C@@H](C)O`, the minimal inhibitory concentration (MIC) with Pseudomonas aeruginosa is 64 µM (≈ 73.8 µg/mL); in the series with Klebsiella pneumoniae, 256 µM (≈ 295 µg/mL); with Bacillus subtilis it was 64 µM (≈ 73.8 µg/mL); in the series on Escherichia coli [1] it was 256 µM (≈ 295 µg/mL); in the series with Staphylococcus aureus [2] it was over 256 µM. The same compound came in with an HC10 in the series on Erythrocyte of over 300 µM.
`CC[C@H](C)[C@H](NC(=O)[C@H](CCCNC(=N)N)NC(=O)[C@H](CCCCN)NC(=O)[C@H](CC(C)C)NC(=O)[C@@H](CC(C)C)NC(=O)CN)C(=O)N[C@@H](CCCCN)C(=O)N[C@H](C(=O)N[C@@H](CC(C)C)C(=O)N[C@H](CC(C)C)C(N)=O)[C@@H](C)O`: the MIC in the series with Pseudomonas aeruginosa is 64 µM (≈ 73.8 µg/mL); with Klebsiella pneumoniae, over 256 µM; in the series on Bacillus subtilis it was 64 µM (≈ 73.8 µg/mL); with Escherichia coli [1], 128 µM (≈ 148 µg/mL); in the series with Staphylococcus aureus [2], over 256 µM. In the series on Erythrocyte, this compound came in with an HC10 of over 300 µM.
Consider `CC[C@H](C)[C@H](NC(=O)[C@H](CCCNC(=N)N)NC(=O)[C@H](CCCCN)NC(=O)[C@@H](CC(C)C)NC(=O)[C@H](CC(C)C)NC(=O)CN)C(=O)N[C@@H](CCCCN)C(=O)N[C@H](C(=O)N[C@H](CC(C)C)C(=O)N[C@@H](CC(C)C)C(N)=O)[C@@H](C)O`, for which the MIC is 8 µM (≈ 9.23 µg/mL) in the series with Pseudomonas aeruginosa; 256 µM (≈ 295 µg/mL) in the series with Klebsiella pneumoniae; 16 µM (≈ 18.5 µg/mL) in the series on Bacillus subtilis; 32 µM (≈ 36.9 µg/mL) in the series with Escherichia coli [1]; over 256 µM in the series with Staphylococcus aureus [2]. The same compound gave an HC10 in the series on Erythrocyte of over 300 µM.
In the case of `CC[C@H](C)[C@H](NC(=O)[C@H](CCCNC(=N)N)NC(=O)[C@@H](CCCCN)NC(=O)[C@H](CC(C)C)NC(=O)[C@H](CC(C)C)NC(=O)CN)C(=O)N[C@@H](CCCCN)C(=O)N[C@@H](C(=O)N[C@@H](CC(C)C)C(=O)N[C@@H](CC(C)C)C(N)=O)[C@H](C)O`, the MIC in the series on Pseudomonas aeruginosa is 128 µM (≈ 148 µg/mL); in the series with Klebsiella pneumoniae it was over 256 µM; in the series on Bacillus subtilis it was 32 µM (≈ 36.9 µg/mL); in the series with Escherichia coli [1] it was 256 µM (≈ 295 µg/mL); with Staphylococcus aureus [2] it was over 256 µM.
As for `CC[C@H](C)[C@H](NC(=O)[C@H](CCCNC(=N)N)NC(=O)[C@H](CCCCN)NC(=O)[C@H](CC(C)C)NC(=O)[C@H](CC(C)C)NC(=O)CN)C(=O)N[C@@H](CCCCN)C(=O)N[C@H](C(=O)N[C@H](CC(C)C)C(=O)N[C@H](CC(C)C)C(N)=O)[C@@H](C)O`, the MIC in the series on Pseudomonas aeruginosa is 8 µM (≈ 9.23 µg/mL); in the series on Klebsiella pneumoniae, 128 µM (≈ 148 µg/mL); in the series with Bacillus subtilis, 8 µM (≈ 9.23 µg/mL); in the series on Escherichia coli [1], 256 µM (≈ 295 µg/mL); in the series with Staphylococcus aureus [2] it was 64 µM (≈ 73.8 µg/mL). In addition, in the series on Erythrocyte, the HC10 is over 300 µM.
For the compound `CC[C@H](C)[C@H](NC(=O)[C@H](CCCNC(=N)N)NC(=O)[C@H](CCCCN)NC(=O)[C@@H](CC(C)C)NC(=O)[C@H](CC(C)C)NC(=O)CN)C(=O)N[C@@H](CCCCN)C(=O)N[C@H](C(=O)N[C@H](CC(C)C)C(=O)N[C@H](CC(C)C)C(N)=O)[C@@H](C)O`, the MIC in the series with Pseudomonas aeruginosa is 8 µM (≈ 9.23 µg/mL); in the series with Klebsiella pneumoniae it was 64 µM (≈ 73.8 µg/mL); in the series with Bacillus subtilis, 8 µM (≈ 9.23 µg/mL); with Escherichia coli [1], 256 µM (≈ 295 µg/mL); with Staphylococcus aureus [2], 64 µM (≈ 73.8 µg/mL). In the series on Erythrocyte, this compound showed an HC10 of over 300 µM.
In the case of `CC[C@H](C)[C@H](NC(=O)[C@@H](CCCNC(=N)N)NC(=O)[C@H](CCCCN)NC(=O)[C@H](CC(C)C)NC(=O)[C@H](CC(C)C)NC(=O)CN)C(=O)N[C@H](CCCCN)C(=O)N[C@H](C(=O)N[C@@H](CC(C)C)C(=O)N[C@@H](CC(C)C)C(N)=O)[C@@H](C)O`, the MIC is 32 µM (≈ 36.9 µg/mL) with Pseudomonas aeruginosa; 256 µM (≈ 295 µg/mL) with Klebsiella pneumoniae; 32 µM (≈ 36.9 µg/mL) in the series with Bacillus subtilis; 256 µM (≈ 295 µg/mL) in the series on Escherichia coli [1]; over 256 µM in the series with Staphylococcus aureus [2]. This compound gave an HC10 in the series with Erythrocyte of over 300 µM.
On to `CC[C@H](C)[C@H](NC(=O)[C@H](CCCNC(=N)N)NC(=O)[C@H](CCCCN)NC(=O)[C@@H](CC(C)C)NC(=O)[C@@H](CC(C)C)NC(=O)CN)C(=O)N[C@@H](CCCCN)C(=O)N[C@H](C(=O)N[C@@H](CC(C)C)C(=O)N[C@@H](CC(C)C)C(N)=O)[C@@H](C)O`, for which the MIC in the series with Pseudomonas aeruginosa is 8 µM (≈ 9.23 µg/mL); in the series with Klebsiella pneumoniae, over 256 µM; in the series with Bacillus subtilis, 16 µM (≈ 18.5 µg/mL); in the series on Escherichia coli [1], 128 µM (≈ 148 µg/mL); in the series on Staphylococcus aureus [2], over 256 µM. The compound also yielded an HC10 in the series on Erythrocyte of over 300 µM.
In the case of `CC[C@H](C)[C@H](NC(=O)[C@H](CCCNC(=N)N)NC(=O)[C@H](CCCCN)NC(=O)[C@H](CC(C)C)NC(=O)[C@H](C)NC(=O)CN)C(=O)N[C@@H](CCCCN)C(=O)N[C@H](C(=O)N[C@@H](CC(C)C)C(=O)N[C@@H](CC(C)C)C(N)=O)[C@@H](C)O` (H-GALKRIKTLL-NH2), the MIC in the series with Staphylococcus aureus [3] and with Escherichia coli [4] was over 38.7 µM in each case.
For the compound `CC[C@H](C)[C@H](NC(=O)[C@H](CCCNC(=N)N)NC(=O)[C@H](CCCCN)NC(=O)[C@H](C)NC(=O)[C@H](CC(C)C)NC(=O)CN)C(=O)N[C@@H](CCCCN)C(=O)N[C@H](C(=O)N[C@@H](CC(C)C)C(=O)N[C@@H](CC(C)C)C(N)=O)[C@@H](C)O` (H-GLAKRIKTLL-NH2), the MIC in the series on Staphylococcus aureus [3] and in the series with Escherichia coli [4] was over 34.2 µM in each case.
In the case of `CC[C@H](C)[C@H](NC(=O)[C@H](CCCNC(=N)N)NC(=O)[C@H](C)NC(=O)[C@H](CC(C)C)NC(=O)[C@H](CC(C)C)NC(=O)CN)C(=O)N[C@@H](CCCCN)C(=O)N[C@H](C(=O)N[C@@H](CC(C)C)C(=O)N[C@@H](CC(C)C)C(N)=O)[C@@H](C)O` (H-GLLARIKTLL-NH2), the MIC with Staphylococcus aureus [3] stood at 25.6 µM (≈ 28.1 µg/mL); in the series on Escherichia coli [4], 14.6 µM (≈ 16 µg/mL).
A word on the HC50: it is the concentration giving 50% haemolysis. A low value points to stronger haemolysis. In the case of `CC[C@H](C)[C@H](NC(=O)[C@H](C)NC(=O)[C@H](CCCCN)NC(=O)[C@H](CC(C)C)NC(=O)[C@H](CC(C)C)NC(=O)CN)C(=O)N[C@@H](CCCCN)C(=O)N[C@H](C(=O)N[C@@H](CC(C)C)C(=O)N[C@@H](CC(C)C)C(N)=O)[C@@H](C)O` (H-GLLKAIKTLL-NH2), the HC50 in series [5] was found to be 151 µM. Besides, the MIC was determined as 9.4 µM (≈ 10 µg/mL) in the series with Staphylococcus aureus [3] and 4.7 µM (≈ 5.02 µg/mL) with Escherichia coli [4].
As to `CC(C)C[C@H](NC(=O)[C@H](CC(C)C)NC(=O)[C@@H](NC(=O)[C@H](CCCCN)NC(=O)[C@H](C)NC(=O)[C@H](CCCNC(=N)N)NC(=O)[C@H](CCCCN)NC(=O)[C@H](CC(C)C)NC(=O)[C@H](CC(C)C)NC(=O)CN)[C@@H](C)O)C(N)=O` (H-GLLKRAKTLL-NH2), the MIC in the series on Staphylococcus aureus [3] and with Escherichia coli [4] was over 36.9 µM throughout.
In the case of `CC[C@H](C)[C@H](NC(=O)[C@H](CCCNC(=N)N)NC(=O)[C@H](CCCCN)NC(=O)[C@H](CC(C)C)NC(=O)[C@H](CC(C)C)NC(=O)CN)C(=O)N[C@@H](C)C(=O)N[C@H](C(=O)N[C@@H](CC(C)C)C(=O)N[C@@H](CC(C)C)C(N)=O)[C@@H](C)O` (H-GLLKRIATLL-NH2), in series [5], the HC50 turned out to be 121 µM. Also, the MIC with Staphylococcus aureus [3] and in the series on Escherichia coli [4] was 10.1 µM (≈ 11.1 µg/mL) throughout.
Compound `CC[C@H](C)[C@H](NC(=O)[C@H](CCCNC(=N)N)NC(=O)[C@H](CCCCN)NC(=O)[C@H](CC(C)C)NC(=O)[C@H](CC(C)C)NC(=O)CN)C(=O)N[C@@H](CCCCN)C(=O)N[C@@H](C)C(=O)N[C@@H](CC(C)C)C(=O)N[C@@H](CC(C)C)C(N)=O` (H-GLLKRIKALL-NH2) gave an HC50 in series [5] of 86.5 µM. For the same compound, the figures for the MIC in the series on Staphylococcus aureus [3] and in the series with Escherichia coli [4] were 7.1 µM (≈ 7.98 µg/mL) and 14.3 µM (≈ 16.1 µg/mL), respectively.
`CC[C@H](C)[C@H](NC(=O)[C@H](CCCNC(=N)N)NC(=O)[C@H](CCCCN)NC(=O)[C@H](CC(C)C)NC(=O)[C@H](CC(C)C)NC(=O)CN)C(=O)N[C@@H](CCCCN)C(=O)N[C@H](C(=O)N[C@@H](C)C(=O)N[C@@H](CC(C)C)C(N)=O)[C@@H](C)O` (H-GLLKRIKTAL-NH2): the MIC in the series with Staphylococcus aureus [3] amounted to 27.9 µM (≈ 31 µg/mL); with Escherichia coli [4] it was 44.1 µM (≈ 49 µg/mL).
